Results taken from patent US20140206682A1, “COMPOUNDS AND COMPOSITIONS AS PDGFR KINASE INHIBITORS” (NOVARTIS PHARMACEUTICALS UK LIMITED, priority 2011, published 2014).

The compounds below were run on PDGFR (assay: Rat A10 cell proliferation assay). Conditions: Table 1; Rat A10 cells, recombinant rat PDGF-BB, CellTiter-Glo after 68 hours.
Type: cell-based
Description: Compounds of Formula (I) provided herein were assayed to measure their capacity to inhibit c-kit and PDGFR kinases using the appropriate assay described below: c-Kit inhibition was evaluated using the Mo7e cell proliferation assay, and PDGFR inhibition was evaluated using the Rat A10 cell proliferation assay and the Human TG/HA-VSMC cell proliferation assay.
Rat A10 cells (ATCC) were resuspended in DMEM supplemented with 1% FBS and 10 ng/mL recombinant rat PDGF-BB at 20,000 cells/mL. The cells were aliquoted into 384 well plates at 50 μL/well and incubated for 4 hours at 37° C. 0.5 μL of test compound 3-fold serially diluted in DMSO was added to each well. The plates were returned to the incubator for a further 68 hours. 25 μL of CellTiter-Glo (Promega) was added to each well and the plates were incubated on the bench for 15 minutes. Luminescence was then read using a CLIPR CCD camera (Molecular Devices).
Work on `O=C(N[C@@H]1CCCCC[C@H]1O)c1ccc(F)c(NC(=O)c2cnc3ccccn23)c1` [F12, N-(2-fluoro-5-{[(1R,2R)-2-hydroxycycloheptyl]carbamoyl}phenyl)imidazo[1,2-a]pyridine-3-carboxamide] yielded an IC50 of 79 nM.
Compound `O=C(N[C@H]1c2ccccc2C[C@@H]1O)c1ccc(F)c(NC(=O)c2cnc3ccccn23)c1` [F8, N-(2-fluoro-5-{[(1S,2S)-2-hydroxy-2,3-dihydro-1H-inden-1-yl]carbamoyl}phenyl)imidazo[1,2-a]pyridine-3-carboxamide] has an IC50 of 38 nM.
Work on `Cc1ccc(C(=O)N[C@@H]2c3ccccc3C[C@H]2O)cc1NC(=O)c1cnc2ccccn12` [F22, N-(5-{[(1R,2R)-2-hydroxy-2,3-dihydro-1H-inden-1-yl]carbamoyl}-2-methylphenyl)imidazo[1,2-a]pyridine-3-carboxamide] yielded an IC50 of 28 nM.
In the case of `Cn1nccc1-c1ccn2c(C(=O)Nc3cc(C(=O)N[C@H]4Cc5ccccc5[C@H]4O)ccc3F)cnc2c1` [F16, N-(2-fluoro-5-{[(1R,2S)-1-hydroxy-2,3-dihydro-1H-inden-2-yl]carbamoyl}phenyl)-7-(1-methyl-1H-pyrazol-5-yl)imidazo[1,2-a]pyridine-3-carboxamide], the IC50 is reported as 57 nM.
Compound `COc1ccc2ncc(C(=O)Nc3cc(C(=O)N[C@@H]4c5ccccc5C[C@@H]4O)ccc3F)n2c1` [F19, N-(2-fluoro-5-{[(1R,2S)-2-hydroxy-2,3-dihydro-1H-inden-1-yl]carbamoyl}phenyl)-6-methoxyimidazo[1,2-a]pyridine-3-carboxamide] has an IC50 of 82 nM.
With `O=C(N[C@@H]1c2ccccc2C[C@@H]1O)c1ccc(F)c(NC(=O)c2cnc3ccccn23)c1` [F5, N-(2-fluoro-5-{[(1R,2S)-2-hydroxy-2,3-dihydro-1H-inden-1-yl]carbamoyl}phenyl)imidazo[1,2-a]pyridine-3-carboxamide] the IC50 was 35 nM.
`COC[C@H](NC(=O)c1ccc(F)c(NC(=O)c2cnc3ccccn23)c1)[C@@H](O)c1ccccc1` [F117, N-(2-fluoro-5-{[(1S,2S)-1-hydroxy-3-methoxy-1-phenylpropan-2-yl]carbamoyl}phenyl)imidazo[1,2-a]pyridine-3-carboxamide] gave an IC50 of 13 nM.
`CN(C)CCCOc1ccc(-c2ccn3c(C(=O)Nc4cc(C(=O)N[C@H]5Cc6ccccc6[C@H]5O)ccc4F)cnc3c2)cn1` (stereo in doubt) [F32, 7-{6-[3-(dimethylamino)propoxy]pyridin-3-yl}-N-(2-fluoro-5-{[(1R,2S)-1-hydroxy-2,3-dihydro-1H-inden-2-yl]carbamoyl}phenyl)imidazo[1,2-a]pyridine-3-carboxamide] showed an IC50 of 44 nM.
In the case of `O=C(N[C@@H]1c2ccccc2C[C@H]1O)c1ccc(F)c(NC(=O)c2cnc3ccccn23)c1` [F7, N-(2-fluoro-5-{[(1R,2R)-2-hydroxy-2,3-dihydro-1H-inden-1-yl]carbamoyl}phenyl)imidazo[1,2-a]pyridine-3-carboxamide], the IC50 is reported as 138 nM.
`O=C(N[C@@H]1CCCC[C@@H]1O)c1ccc(F)c(NC(=O)c2cnc3ccccn23)c1` [F11, N-(2-fluoro-5-{[(1R,2S)-2-hydroxycyclohexyl]carbamoyl}phenyl)imidazo[1,2-a]pyridine-3-carboxamide] was tested, and the IC50 was 199 nM.
`Cc1ccc2ncc(C(=O)Nc3cc(C(=O)N[C@H]4CCCC[C@@H]4O)ccc3F)n2c1` [F114, N-(2-fluoro-5-{[(1S,2S)-2-hydroxycyclohexyl]carbamoyl}phenyl)-6-methylimidazo[1,2-a]pyridine-3-carboxamide] showed an IC50 of 70 nM.
For `Cc1ccc(C(=O)N[C@H]2c3ccccc3C[C@@H]2O)cc1NC(=O)c1cnc2ccccn12` [F23, N-(5-{[(1S,2S)-2-hydroxy-2,3-dihydro-1H-inden-1-yl]carbamoyl}-2-methylphenyl)imidazo[1,2-a]pyridine-3-carboxamide], the IC50 was 21 nM.
With `Cc1ccc(C(=O)NC(CO)c2ccccc2)cc1NC(=O)c1cnc2ccccn12` (stereo not shown) [F2, N-{5-[(2-hydroxy-1-phenylethyl)carbamoyl]-2-methylphenyl}imidazo[1,2-a]pyridine-3-carboxamide] the IC50 was 146 nM.
Work on `Cn1nccc1-c1ccn2c(C(=O)Nc3cc(C(=O)NC4Cc5ccccc5C4O)ccc3F)cnc2c1` (stereo not shown) [F14, N-{2-fluoro-5-[(1-hydroxy-2,3-dihydro-1H-inden-2-yl)carbamoyl]phenyl}-7-(1-methyl-1H-pyrazol-5-yl)imidazo[1,2-a]pyridine-3-carboxamide] yielded an IC50 of 32 nM.
Compound `COC[C@H](NC(=O)c1ccc(F)c(NC(=O)c2cnc3cc(C)ccn23)c1)[C@@H](O)c1ccccc1` [F126, N-(2-fluoro-5-{[(1S,2S)-1-hydroxy-3-methoxy-1-phenylpropan-2-yl]carbamoyl}phenyl)-7-methylimidazo[1,2-a]pyridine-3-carboxamide] has an IC50 of 8 nM.

Same assay, conditions: Table 2; Rat A10 cells, recombinant rat PDGF-BB, CellTiter-Glo after 68 hours
`O=C(N[C@@H]1c2ccccc2C[C@@H]1O)c1ccc(F)c(NC(=O)c2cnc3ccc(C(F)(F)F)cn23)c1` (stereo in doubt) [F58, N-(2-fluoro-5-{[(1R,2S)-2-hydroxy-2,3-dihydro-1H-inden-1-yl]carbamoyl}phenyl)-6-(trifluoromethyl)imidazo[1,2-a]pyridine-3-carboxamide] gave an IC50 of 584 nM.
With `O=C(N[C@@H]1CCCC[C@H]1O)c1ccc(F)c(NC(=O)c2cnc3ccccn23)c1` [F56, N-(2-fluoro-5-{[(1R,2R)-2-hydroxycyclohexyl]carbamoyl}phenyl)imidazo[1,2-a]pyridine-3-carboxamide] the IC50 was 521 nM.
For `O=C(N[C@H]1c2ccccc2C[C@H]1O)c1ccc(F)c(NC(=O)c2cnc3cc(N4CCOCC4)ccn23)c1` [F71, N-(2-fluoro-5-{[(1S,2R)-2-hydroxy-2,3-dihydro-1H-inden-1-yl]carbamoyl}phenyl)-7-(morpholin-4-yl)imidazo[1,2-a]pyridine-3-carboxamide], the IC50 was 2180 nM.
Compound `O=C(NCC1(O)CCCC1)c1cccc(NC(=O)c2cnc3ccccn23)c1` [F69] has an IC50 of 1850 nM.
With `Cc1ccn2c(C(=O)Nc3cc(C(=O)N[C@H]([C@@H](O)c4ccccc4)C(C)(C)O)ccc3F)cnc2c1` [F108, N-(5-{[(1S,2R)-1,3-dihydroxy-3-methyl-1-phenylbutan-2-yl]carbamoyl}-2-fluorophenyl)-7-methylimidazo[1,2-a]pyridine-3-carboxamide] the IC50 was 255 nM.
With `O=C(N[C@@H](c1ccccc1)[C@H](O)CO)c1ccc(F)c(NC(=O)c2cnc3ccccn23)c1` [F101, N-(5-{[(1S,2S)-2,3-dihydroxy-1-phenylpropyl]carbamoyl}-2-fluorophenyl)imidazo[1,2-a]pyridine-3-carboxamide] the IC50 was 429 nM.
`O=C(N[C@@H]1c2ccccc2C[C@@H]1O)c1ccc(F)c(NC(=O)c2cnc3ccc(-n4ccnc4)cn23)c1` (stereo in doubt) [F72, N-(2-fluoro-5-{[(1R,2S)-2-hydroxy-2,3-dihydro-1H-inden-1-yl]carbamoyl}phenyl)-6-(1H-imidazol-1-yl)imidazo[1,2-a]pyridine-3-carboxamide] was tested, and the IC50 was 2860 nM.
`O=C(NCC(O)C(F)(F)F)c1ccc(F)c(NC(=O)c2cnc3ccccn23)c1` (stereo not shown) [F63, N-{2-fluoro-5-[(3,3,3-trifluoro-2-hydroxypropyl)carbamoyl]phenyl}imidazo[1,2-a]pyridine-3-carboxamide] was tested, and the IC50 was 1060 nM.
Compound `O=C(N[C@H](CO)[C@H](O)c1ccccc1)c1ccc(F)c(NC(=O)c2cnc3ccccn23)c1` [F107, N-(5-{[(1R,2R)-1,3-dihydroxy-1-phenylpropan-2-yl]carbamoyl}-2-fluorophenyl)imidazo[1,2-a]pyridine-3-carboxamide] has an IC50 of 265 nM.
For `CC(C)(O)[C@H]1CCCC[C@@H]1NC(=O)c1ccc(F)c(NC(=O)c2cnc3ccccn23)c1` [F102, N-(2-fluoro-5-{[(1S,2S)-2-(2-hydroxypropan-2-yl)cyclohexyl]carbamoyl}phenyl)imidazo[1,2-a]pyridine-3-carboxamide], the IC50 was 425 nM.
Work on `O=C(N[C@@H]1CCCC(F)(F)[C@H]1O)c1ccc(F)c(NC(=O)c2cnc3ccccn23)c1` [F99, N-(5-{[(1R,2S)-3,3-difluoro-2-hydroxycyclohexyl]carbamoyl}-2-fluorophenyl)imidazo[1,2-a]pyridine-3-carboxamide] yielded an IC50 of 325 nM.
`O=C(N[C@@H]1CCC[C@@H]1O)c1ccc(F)c(NC(=O)c2cnc3ccccn23)c1` (stereo in doubt) [F66, N-(2-fluoro-5-{[(1R,2S)-2-hydroxycyclopentyl]carbamoyl}phenyl)imidazo[1,2-a]pyridine-3-carboxamide] was tested, and the IC50 was 1180 nM.
For `COc1ccc2c(c1)[C@@H](NC(=O)c1ccc(F)c(NC(=O)c3cnc4ccc(C)cn34)c1)[C@@H](O)C2` (stereo in doubt) [F45, N-(2-fluoro-5-{[(1R,2S)-2-hydroxy-6-methoxy-2,3-dihydro-1H-inden-1-yl]carbamoyl}phenyl)-6-methylimidazo[1,2-a]pyridine-3-carboxamide], the IC50 was 345 nM.
With `O=C(N[C@@H](CO)c1ccccc1)c1ccc(F)c(NC(=O)c2cnc3ccccn23)c1` [F86, N-(2-fluoro-5-{[(1R)-2-hydroxy-1-phenylethyl]carbamoyl}phenyl)imidazo[1,2-a]pyridine-3-carboxamide] the IC50 was 1510 nM.
Compound `O=C(NC[C@@H](O)c1cccc(O)c1)c1ccc(F)c(NC(=O)c2cnc3ccccn23)c1` [F97, N-(2-fluoro-5-{[(2S)-2-hydroxy-2-(3-hydroxyphenyl)ethyl]carbamoyl}phenyl)imidazo[1,2-a]pyridine-3-carboxamide] has an IC50 of 668 nM.
Work on `O=C(N[C@@H]1CCCC[C@@H]1O)c1ccc(F)c(NC(=O)c2cnc3ccccn23)c1` [F82, N-(2-fluoro-5-{[(1R,2S)-2-hydroxycyclohexyl]carbamoyl}phenyl)imidazo[1,2-a]pyridine-3-carboxamide] yielded an IC50 of 304 nM.
